molecular target: T1, recombinant Vps34 (Homo sapiens, UniProt Q8NEB9); test: Phosphorylation of phosphatidylinositol (PI) by Vps34 in vitro, ADP detected by TR-FRET (HTRF Transcreener ADP); assay type: biochemical; conditions: 10 μM ATP, 55 μg/ml PI, approximately 3 nM Vps34, 1 hour at ambient temperature; absolute IC50, mean of two independent experiments; read-out: IC50 activity range
T1 construct: purchased Invitrogen PV5126
T1 sequence (Q8NEB9 whole entry): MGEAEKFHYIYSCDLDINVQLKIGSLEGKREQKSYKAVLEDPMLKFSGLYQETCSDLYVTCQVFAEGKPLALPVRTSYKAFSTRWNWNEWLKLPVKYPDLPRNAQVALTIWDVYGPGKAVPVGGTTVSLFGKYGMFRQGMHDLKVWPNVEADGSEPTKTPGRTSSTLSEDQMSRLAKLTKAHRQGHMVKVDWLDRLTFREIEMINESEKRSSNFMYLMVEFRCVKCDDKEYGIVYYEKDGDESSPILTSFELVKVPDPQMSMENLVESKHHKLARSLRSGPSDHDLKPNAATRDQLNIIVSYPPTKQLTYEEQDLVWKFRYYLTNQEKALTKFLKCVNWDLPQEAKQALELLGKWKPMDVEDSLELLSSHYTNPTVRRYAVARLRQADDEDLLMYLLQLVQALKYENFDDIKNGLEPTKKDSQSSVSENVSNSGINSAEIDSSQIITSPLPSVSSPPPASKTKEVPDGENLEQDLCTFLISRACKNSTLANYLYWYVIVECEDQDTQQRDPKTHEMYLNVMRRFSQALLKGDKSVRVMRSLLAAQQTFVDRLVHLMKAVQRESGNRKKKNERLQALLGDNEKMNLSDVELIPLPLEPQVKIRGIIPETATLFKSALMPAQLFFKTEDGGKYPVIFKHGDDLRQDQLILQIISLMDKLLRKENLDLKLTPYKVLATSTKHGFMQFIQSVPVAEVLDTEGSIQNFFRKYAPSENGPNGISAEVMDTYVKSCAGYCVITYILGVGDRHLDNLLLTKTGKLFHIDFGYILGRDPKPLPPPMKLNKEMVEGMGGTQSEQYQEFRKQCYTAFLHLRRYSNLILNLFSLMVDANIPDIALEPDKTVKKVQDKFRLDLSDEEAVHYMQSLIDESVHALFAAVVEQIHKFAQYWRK

Row | IC50 [nM] | Compound
1 | 10 to 100 | O=c1cc(N2CCOCC2CO)nc2n1CC[C@@H](C(F)(F)F)N2Cc1ccc(Cl)s1 (single isomer, unassigned) [Example 177]
2 | 10 to 100 | CC1CN(c2cc(=O)n3c(n2)N(Cc2ccccc2)[C@H](C(F)(F)F)CC3)CCO1 (single isomer, unassigned) [Example 191]
3 | > 100 | O=c1cc(N2CCOC(CF)C2)nc2n1CC[C@@H](C(F)(F)F)N2Cc1ccccc1 (single isomer, unassigned) [Example 194]
4 | < 10 | C[C@@H]1COCCN1c1cc(=O)n2c(n1)N(CC(O)c1cccnc1)[C@H](C(F)(F)F)CC2 (single isomer, unassigned) [Example 209]
5 | < 10 | C[C@@H]1COCCN1c1cc(=O)n2c(n1)N(CC(O)c1ccccn1)[C@H](C(F)(F)F)CC2 (single isomer, unassigned) [Example 212]
6 | < 10 | CCC(C)N1c2nc(N3CCOC[C@H]3C)cc(=O)n2CC[C@H]1C(F)(F)F (single isomer, unassigned) [Example 284]
7 | < 10 | COC(CN1c2nc(N3CCOC[C@H]3C)cc(=O)n2CC[C@H]1C(F)(F)F)C(C)C (single isomer, unassigned) [Example 288]
8 | < 10 | C[C@@H]1COCCN1c1cc(=O)n2c(n1)N(C/C(=N\O)C1CC1)[C@H](C(F)(F)F)CC2 (single isomer, unassigned) [Example 304]
9 | < 10 | C[C@@H]1COCCN1c1cc(=O)n2c(n1)N(C/C(=N/O)C1CC1)[C@H](C(F)(F)F)CC2 (single isomer, unassigned) [Example 305]
10 | < 10 | CO/N=C(/CN1c2nc(N3CCOC[C@H]3C)cc(=O)n2CC[C@H]1C(F)(F)F)C1CC1 (single isomer, unassigned) [Example 306]
11 | < 10 | CO/N=C(\CN1c2nc(N3CCOC[C@H]3C)cc(=O)n2CC[C@H]1C(F)(F)F)C1CC1 (single isomer, unassigned) [Example 307]
12 | < 10 | C[C@@H]1COCCN1c1cc(=O)n2c(n1)N(CC1(C3CC3)CCO1)[C@H](C(F)(F)F)CC2 (single isomer, unassigned) [Example 308]
13 | 10 to 100 | CC1CN(c2nc3n(c(=O)c2F)CC[C@@H](C(F)(F)F)N3CC(=O)C2CC2)CCO1 (single isomer, unassigned) [Example 322]
14 | < 10 | CC(C)C(F)CN1c2nc(N3CCOC[C@H]3C)cc(=O)n2CC[C@H]1C(F)(F)F (single isomer, unassigned) [Example 323]
15 | < 10 | C[C@@H]1COCCN1c1cc(=O)n2c(n1)N(CC(F)C1CC1)[C@H](C(F)(F)F)CC2 (single isomer, unassigned) [Example 325]
16 | < 10 | CC(C)C(F)CN1c2nc(N3CCOC[C@H]3C)c(F)c(=O)n2CC[C@H]1C(F)(F)F (single isomer, unassigned) [Example 328]
17 | < 10 | C[C@@H]1COCCN1c1nc2n(c(=O)c1F)CC[C@@H](C(F)(F)F)N2CC(F)C1CC1 (single isomer, unassigned) [Example 331]

The next lines start with the compound.

Row | Compound | IC50 [nM]
18 | C[C@@H]1COCCN1c1cc(=O)n2c(n1)N(CC1CCCO1)[C@H](C(F)(F)F)CC2 (single isomer, unassigned) [Example 136] | < 10
19 | C[C@@H]1COCCN1c1cc(=O)n2c(n1)N(CC1CCCCO1)[C@H](C(F)(F)F)CC2 (single isomer, unassigned) [Example 138] | < 10
20 | CCC1CN(c2cc(=O)n3c(n2)N(CC(=O)c2ccccn2)[C@H](C(F)(F)F)CC3)CCO1 (single isomer, unassigned) [Example 172] | > 100
21 | CC1CN(c2cc(=O)n3c(n2)N(CC(=O)c2ccccn2)[C@H](C(F)(F)F)CC3)CCO1 (single isomer, unassigned) [Example 174] | 10 to 100
22 | CC1CN(c2cc(=O)n3c(n2)N(CC(=O)c2ccccn2)[C@H](C(F)(F)F)CC3)CCO1 (single isomer, unassigned) [Example 175] | > 100
23 | O=c1cc(N2CCOCC2CO)nc2n1CC[C@@H](C(F)(F)F)N2c1cc(F)cc(F)c1 (single isomer, unassigned) [Example 176] | > 100
24 | CC1COCC(C)N1c1cc(=O)n2c(n1)N(Cc1ccc(Cl)s1)[C@H](C(F)(F)F)CC2 (stereo in doubt) [Example 152, (S)-9-(5-Chloro-thiophen-2-ylmethyl)-2-((3S,5S)-3,5-dimethylmorpholin-4-yl)-8-trifluoromethyl-6,7,8,9-tetrahydro-pyrimido[1,2-a]-pyrimidin-4-one] | < 10
25 | CC1COCC(C)N1c1cc(=O)n2c(n1)N(CC(=O)c1ccccc1)[C@H](C(F)(F)F)CC2 (stereo in doubt) [Example 153, (S)-2-((3S,5S)-3,5-Dimethylmorpholin-4-yl)-9-(2-oxo-2-phenyl-ethyl)-8-trifluoromethyl-6,7,8,9-tetrahydro-pyrimido[1,2-a]-pyrimidin-4-one] | < 10
26 | C[C@@H]1COCCN1c1cc(=O)n2c(n1)N(CC(=O)c1ccccn1)[C@H](C(F)(F)F)CC2 [Example 1, (S)-2-((R)-3-Methyl-morpholin-4-yl)-9-(2-oxo-2-pyridin-2-yl-ethyl)-8-trifluoromethyl-6,7,8,9-tetrahydro-pyrimido[1,2-a]-pyrimidin-4-one] | < 10
27 | Cc1nc(CN2c3nc(N4CCOC[C@H]4C)cc(=O)n3CC[C@H]2C(F)(F)F)no1 [Example 2, (S)-2-((R)-3-Methyl-morpholin-4-yl)-9-(5-methyl-[1,2,4]oxadiazol-3-yl-methyl)-8-trifluoromethyl-6,7,8,9-tetrahydro-pyrimido[1,2-a]-pyrimidin-4-one] | < 10
28 | CC(C)C(=O)CN1c2nc(N3CCOC[C@H]3C)c(F)c(=O)n2CC[C@H]1C(F)(F)F [Example 4, (S)-3-Fluoro-2-((R)-3-methylmorpholin-4-yl)-9-(3-methyl-2-oxo-butyl)-8-trifluoromethyl-6,7,8,9-tetrahydro-pyrimido[1,2-a]-pyrimidin-4-one] | < 10
29 | C[C@@H]1COCCN1c1nc2n(c(=O)c1F)CC[C@@H](C(F)(F)F)N2Cc1ccnc(F)c1 [Example 5, (S)-3-Fluoro-9-(2-fluoropyridin-4-yl-methyl)-2-((R)-3-methylmorpholin-4-yl)-8-trifluoromethyl-6,7,8,9-tetrahydro-pyrimido[1,2-a]-pyrimidin-4-one] | < 10
30 | C[C@@H]1COCCN1c1nc2n(c(=O)c1F)CC[C@@H](C(F)(F)F)N2CC(=O)C1CC1 [Example 6, (S)-9-(2-Cyclopropyl-2-oxoethyl)-3-fluoro-2-((R)-3-methyl-morpholin-4-yl)-8-trifluoromethyl-6,7,8,9-tetrahydro-pyrimido[1,2-a]-pyrimidin-4-one] | < 10
31 | CC(=O)CN1c2nc(N3CCOC[C@H]3C)c(F)c(=O)n2CC[C@H]1C(F)(F)F [Example 7, (S)-3-Fluoro-2-((R)-3-methylmorpholin-4-yl)-9-(2-oxopropyl)-8-trifluoromethyl-6,7,8,9-tetrahydro-pyrimido[1,2-a]-pyrimidin-4-one] | < 10
32 | C[C@H](O)CN1c2nc(N3CCOC[C@H]3C)c(F)c(=O)n2CC[C@H]1C(F)(F)F [Example 8, (S)-3-Fluoro-9-((S)-2-hydroxypropyl)-2-((R)-3-methylmorpholin-4-yl)-8-trifluoromethyl-6,7,8,9-tetrahydro-pyrimido[1,2-a]-pyrimidin-4-one] | < 10
33 | C[C@@H]1COC[C@@H](C)N1c1cc(=O)n2c(n1)N(Cc1ccno1)[C@H](C(F)(F)F)CC2 [Example 9, (S)-2-((3R,5R)-3,5-Dimethylmorpholin-4-yl)-9-isoxazol-5-yl-methyl-8-trifluoromethyl-6,7,8,9-tetrahydro-pyrimido[1,2-a]-pyrimidin-4-one] | < 10
34 | C[C@@H]1COCCN1c1cc(=O)n2c(n1)N(CC(=O)c1ccnc(Cl)c1)[C@H](C(F)(F)F)CC2 [Example 10, (S)-9-[2-(2-Chloro-pyridin-4-yl)-2-oxo-ethyl]-2-((R)-3-methyl-morpholin-4-yl)-8-trifluoromethyl-6,7,8,9-tetrahydro-pyrimido[1,2-a]-pyrimidin-4-one] | < 10
35 | C[C@@H]1COCCN1c1cc(=O)n2c(n1)N(CC(=O)c1cccnc1)[C@H](C(F)(F)F)CC2 [Example 11, (S)-2-((R)-3-Methyl-morpholin-4-yl)-9-(2-oxo-2-pyridin-3-yl-ethyl)-8-trifluoromethyl-6,7,8,9-tetrahydro-pyrimido[1,2-a]-pyrimidin-4-one] | < 10
36 | Cc1nocc1CN1c2nc(N3CCOC[C@H]3C)cc(=O)n2CC[C@H]1C(F)(F)F [Example 12, (S)-9-(3-Methyl-isoxazol-4-ylmethyl)-2-((R)-3-methyl-morpholin-4-yl)-8-trifluoromethyl-6,7,8,9-tetrahydro-pyrimido[1,2-a]-pyrimidin-4-one] | < 10
37 | C[C@@H]1COCCN1c1cc(=O)n2c(n1)N(Cc1ncco1)CC[C@@H]2C(F)(F)F [Example 13, (R)-2-((R)-3-Methyl-morpholin-4-yl)-9-oxazol-2-ylmethyl-6-trifluoromethyl-6,7,8,9-tetrahydro-pyrimido[1,2-a]-pyrimidin-4-one] | 10 to 100
38 | CCOC(=O)CN1c2nc(N3CCOC[C@H]3C)cc(=O)n2CC[C@H]1C(F)(F)F [Example 14, [(S)-8-((R)-3-Methyl-morpholin-4-yl)-6-oxo-2-trifluoromethyl-3,4-dihydro-2H,6H-pyrimido[1,2-a]-pyrimidin-1-yl]acetic acid ethyl ester] | < 10
39 | Cc1nc(CN2c3nc(N4CCOC[C@H]4C)c(F)c(=O)n3CC[C@H]2C(F)(F)F)no1 [Example 15, (S)-3-Fluoro-2-((R)-3-methylmorpholin-4-yl)-9-(5-methyl-[1,2,4]oxadiazol-3-yl-methyl)-8-trifluoromethyl-6,7,8,9-tetrahydro-pyrimido[1,2-a]-pyrimidin-4-one] | < 10
40 | CCC(=O)CN1c2nc(N3CCOC[C@H]3C)cc(=O)n2CC[C@H]1C(F)(F)F [Example 16, (S)-2-((R)-3-Methyl-morpholin-4-yl)-9-(2-oxobutyl)-8-trifluoromethyl-6,7,8,9-tetrahydro-pyrimido[1,2-a]-pyrimidin-4-one] | < 10
